What was measured:
Assay type in all cases: biochemical
FGFR1 = FGFR1 (Homo sapiens (Human), UniProt P11362); test: FGFR enzymatic assay (FRET peptide phosphorylation), FGFR1; details: FGFR1 enzyme 0.02 nM, ATP 210 μM
Description: (§1) The inhibitor potency of the exemplified compounds was measured in an enzyme assay that measures peptide phosphorylation using FRET measurements to detect product formation. Inhibitors were serially diluted in DMSO and a volume of 0.5 μL was transferred to the wells of a 384-well plate. For FGFR3, a 10 μL volume of FGFR3 enzyme (Millipore) diluted in assay buffer (50 mM HEPES, 10 mM MgCl2, 1 mM EGTA, 0.01% Tween-20, 5 mM DTT, pH 7.5) was added to the plate and pre-incubated for 5-10 minutes. Appropriate controls (enzyme blank and enzyme with no inhibitor) were included on the plate. […] The plate was incubated at 25° C. for 1 hr. […] The plate was allowed to equilibrate for ˜1 hr before scanning the wells on a PheraStar plate reader (BMG Labtech).
(§2) The enzymes were purchased from Millipore or Invitrogen.
(§3) GraphPad prism3 was used to analyze the data. The IC50 values were derived by fitting the data to the equation for a sigmoidal dose-response with a variable slope. Y=Bottom+(Top−Bottom)/(1+10^((LogIC50−X)*HillSlope)) where X is the logarithm of concentration and Y is the response.

FGFR2 = FGFR2 (Homo sapiens (Human), UniProt P21802); test: FGFR enzymatic assay (FRET peptide phosphorylation), FGFR2; details: FGFR2 enzyme 0.01 nM, ATP 100 μM
Description: as §1, §2, §3

FGFR3 = FGFR3 (Homo sapiens (Human), UniProt P22607); test: FGFR enzymatic assay (FRET peptide phosphorylation), FGFR3; details: FGFR3 enzyme (Millipore), ATP 140 μM
Description: as §1, §3

Measured: IC50

Chain of FGFR2 (P21802 22-821): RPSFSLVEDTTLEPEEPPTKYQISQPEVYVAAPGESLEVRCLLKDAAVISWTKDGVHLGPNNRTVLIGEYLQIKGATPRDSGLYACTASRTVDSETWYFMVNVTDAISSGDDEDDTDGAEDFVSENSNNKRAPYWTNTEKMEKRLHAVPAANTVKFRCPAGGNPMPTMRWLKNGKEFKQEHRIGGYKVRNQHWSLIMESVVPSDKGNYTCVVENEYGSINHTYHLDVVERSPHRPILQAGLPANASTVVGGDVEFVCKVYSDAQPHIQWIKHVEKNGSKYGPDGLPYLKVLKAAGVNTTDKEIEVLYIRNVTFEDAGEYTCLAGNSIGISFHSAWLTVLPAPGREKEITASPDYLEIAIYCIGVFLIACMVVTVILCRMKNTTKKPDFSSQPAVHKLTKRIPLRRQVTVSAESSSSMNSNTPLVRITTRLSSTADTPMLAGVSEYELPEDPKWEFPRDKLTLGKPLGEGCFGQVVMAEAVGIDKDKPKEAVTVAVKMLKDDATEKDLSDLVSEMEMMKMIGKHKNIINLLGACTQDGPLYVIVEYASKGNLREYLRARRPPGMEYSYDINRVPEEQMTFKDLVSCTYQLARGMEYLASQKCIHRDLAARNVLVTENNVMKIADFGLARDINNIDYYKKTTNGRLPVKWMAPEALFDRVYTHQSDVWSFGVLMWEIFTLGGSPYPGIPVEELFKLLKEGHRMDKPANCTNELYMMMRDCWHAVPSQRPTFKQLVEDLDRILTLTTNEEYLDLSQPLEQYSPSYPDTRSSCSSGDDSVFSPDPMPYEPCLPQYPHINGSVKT
Chain of FGFR3 (P22607 23-806): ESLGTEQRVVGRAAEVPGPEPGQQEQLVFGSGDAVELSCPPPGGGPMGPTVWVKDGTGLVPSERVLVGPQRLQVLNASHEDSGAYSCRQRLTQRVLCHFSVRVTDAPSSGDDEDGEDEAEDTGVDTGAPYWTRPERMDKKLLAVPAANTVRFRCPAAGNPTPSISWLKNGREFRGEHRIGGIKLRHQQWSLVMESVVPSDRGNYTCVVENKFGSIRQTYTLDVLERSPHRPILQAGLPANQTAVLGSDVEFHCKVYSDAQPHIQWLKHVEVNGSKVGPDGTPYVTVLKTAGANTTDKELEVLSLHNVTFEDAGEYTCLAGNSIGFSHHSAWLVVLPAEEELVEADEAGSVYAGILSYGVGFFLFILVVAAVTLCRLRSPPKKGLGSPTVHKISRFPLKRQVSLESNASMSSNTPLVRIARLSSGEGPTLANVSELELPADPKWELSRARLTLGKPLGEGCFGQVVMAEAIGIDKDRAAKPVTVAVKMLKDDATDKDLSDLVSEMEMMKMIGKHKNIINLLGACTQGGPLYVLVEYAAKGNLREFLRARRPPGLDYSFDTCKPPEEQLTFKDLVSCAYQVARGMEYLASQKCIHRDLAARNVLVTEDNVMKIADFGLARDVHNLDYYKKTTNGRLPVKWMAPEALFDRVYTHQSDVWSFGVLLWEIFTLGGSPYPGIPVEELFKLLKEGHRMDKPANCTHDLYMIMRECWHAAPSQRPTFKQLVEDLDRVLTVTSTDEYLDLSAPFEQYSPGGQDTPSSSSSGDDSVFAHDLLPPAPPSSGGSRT
Chain of FGFR1 (P11362 22-822): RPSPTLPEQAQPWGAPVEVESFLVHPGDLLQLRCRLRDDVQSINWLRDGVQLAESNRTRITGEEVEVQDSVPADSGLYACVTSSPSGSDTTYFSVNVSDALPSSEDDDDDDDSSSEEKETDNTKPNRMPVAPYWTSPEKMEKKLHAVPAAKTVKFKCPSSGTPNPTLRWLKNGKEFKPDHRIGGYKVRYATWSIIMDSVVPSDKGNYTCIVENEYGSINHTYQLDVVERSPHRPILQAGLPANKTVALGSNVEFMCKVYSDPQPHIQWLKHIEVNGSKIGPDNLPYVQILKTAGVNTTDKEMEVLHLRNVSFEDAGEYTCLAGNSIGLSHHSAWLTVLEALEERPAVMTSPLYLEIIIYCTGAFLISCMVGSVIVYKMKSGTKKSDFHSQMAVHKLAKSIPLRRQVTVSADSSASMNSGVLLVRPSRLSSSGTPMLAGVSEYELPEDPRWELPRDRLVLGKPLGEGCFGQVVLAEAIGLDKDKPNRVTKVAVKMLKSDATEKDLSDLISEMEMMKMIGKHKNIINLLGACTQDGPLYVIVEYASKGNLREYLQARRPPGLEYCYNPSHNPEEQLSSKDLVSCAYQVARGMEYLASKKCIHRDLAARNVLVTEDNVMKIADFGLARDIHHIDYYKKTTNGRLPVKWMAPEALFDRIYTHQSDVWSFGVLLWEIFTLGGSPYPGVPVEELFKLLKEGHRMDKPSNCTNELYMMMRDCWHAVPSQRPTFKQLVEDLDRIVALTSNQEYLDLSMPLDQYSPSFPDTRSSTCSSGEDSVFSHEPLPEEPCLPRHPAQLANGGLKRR

COc1cc(OC)c(F)c(N2Cc3cnc4[nH]ncc4c3N(CCc3ccccn3)C2=O)c1F [Example 169, 3-(2,6-Difluoro-3,5-dimethoxyphenyl)-1-(2-pyridin-2-ylethyl)-1,3,4,7-tetrahydro-2H-pyrazolo[4′,3′:5,6]pyrido[4,3-d]pyrimidin-2-one]
< 100 nM: all assays above

CCN1CCC(Cc2cc3c4c(cnc3[nH]2)CN(c2c(F)c(OC)cc(OC)c2F)C(=O)N4C)CC1 [Example 73, 3-(2,6-difluoro-3,5-dimethoxyphenyl)-8-[(1-ethylpiperidin-4-yl)methyl]-1-methyl-1,3,4,7-tetrahydro-2H-pyrrolo[3′,2′:5,6]pyrido[4,3-d]pyrimidin-2-one]
< 100 nM: all assays above

COc1cc(OC)c(F)c(N2Cc3cnc4[nH]ncc4c3N(c3cnn(CC(F)F)c3)C2=O)c1F [Example 175, 3-(2,6-difluoro-3,5-dimethoxyphenyl)-1-[1-(2,2-difluoroethyl)-1H-pyrazol-4-yl]-1,3,4,7-tetrahydro-2H-pyrazolo[4′,3′:5,6]pyrido[4,3-d]pyrimidin-2-one]
< 100 nM: all assays above

COc1cc(OC)c(F)c(N2Cc3cnc4[nH]ccc4c3N(c3cccnc3)C2=O)c1F [Example 83, 3-(2,6-difluoro-3,5-dimethoxyphenyl)-1-pyridin-3-yl-1,3,4,7-tetrahydro-2H-pyrrolo[3′,2′:5,6]pyrido[4,3-d]pyrimidin-2-one]
< 100 nM: all assays above

COc1cc(OC)c(F)c(N2Cc3cnc4[nH]ncc4c3N(CCc3cccnc3)C2=O)c1F [Example 170, 3-(2,6-Difluoro-3,5-dimethoxyphenyl)-1-(2-pyridin-3-ylethyl)-1,3,4,7-tetrahydro-2H-pyrazolo[4′,3′:5,6]pyrido[4,3-d]pyrimidin-2-one]
< 100 nM: all assays above

COc1cc(OC)c(F)c(N2Cc3cnc4[nH]c(CN5CCOCC5)cc4c3N(C3CC3)C2=O)c1F [Example 186, 1-cyclopropyl-3-(2,6-difluoro-3,5-dimethoxyphenyl)-8-(morpholin-4-ylmethyl)-1,3,4,7-tetrahydro-2H-pyrrolo[3′,2′:5,6]pyrido[4,3-d]pyrimidin-2-one]
< 100 nM: all assays above

COc1cc(OC)c(F)c(N2Cc3cnc4[nH]ccc4c3N(Cc3ccccn3)C2=O)c1F [Example 78, 3-(2,6-difluoro-3,5-dimethoxyphenyl)-1-(pyridin-2-ylmethyl)-1,3,4,7-tetrahydro-2H-pyrrolo[3′,2′:5,6]pyrido[4,3-d]pyrimidin-2-one]
< 100 nM: all assays above

COc1cc(OC)c(F)c(N2Cc3cnc4[nH]c(CCN5CC(F)C5)cc4c3N(CCO)C2=O)c1F [Example 210, 3-(2,6-difluoro-3,5-dimethoxyphenyl)-8-[2-(3-fluoroazetidin-1-yl)ethyl]-1-(2-hydroxyethyl)-1,3,4,7-tetrahydro-2H-pyrrolo[3′,2′:5,6]pyrido[4,3-d]pyrimidin-2-one]
< 100 nM: all assays above

COc1cc(OC)cc(N2Cc3cnc4[nH]c(C(=O)N5CC(O)C5)cc4c3N(C)C2=O)c1 [Example 20, 3-(3,5-Dimethoxyphenyl)-8-[(3-hydroxyazetidin-1-yl)carbonyl]-1-methyl-1,3,4,7-tetrahydro-2H-pyrrolo[3′,2′:5,6]pyrido[4,3-d]pyrimidin-2-one]
< 100 nM: all assays above

COc1cc(OC)c(F)c(N2Cc3cnc4[nH]c(CN5CC(O)C5)cc4c3C(C)(C)C2=O)c1F [Example 206, 7-(2,6-difluoro-3,5-dimethoxyphenyl)-2-[(3-hydroxyazetidin-1-yl)methyl]-9,9-dimethyl-3,6,7,9-tetrahydro-8H-pyrrolo[2,3-c]-2,7-naphthyridin-8-one]
< 100 nM: all assays above

COc1cc(OC)c(F)c(N2Cc3cnc4[nH]ncc4c3N(c3cccc4cccnc34)C2=O)c1F [Example 96, 3-(2,6-difluoro-3,5-dimethoxyphenyl)-1-quinolin-8-yl-1,3,4,7-tetrahydro-2H-pyrazolo[4′,3′:5,6]pyrido[4,3-d]pyrimidin-2-one]
< 100 nM: all assays above

COc1cc(OC)c(Cl)c(N2Cc3cnc4[nH]c(C(=O)N(C)C)cc4c3N(C)C2=O)c1 [Example 24, 3-(2-Chloro-3,5-dimethoxyphenyl)-N,N,1-trimethyl-2-oxo-2,3,4,7-tetrahydro-1H-pyrrolo[3′,2′:5,6]pyrido[4,3-d]pyrimidine-8-carboxamide]
< 100 nM: all assays above

COc1cc(OC)c(F)c(N2Cc3cnc4[nH]ncc4c3N(CCO)C2=O)c1F [Example 58, 3-(2,6-Difluoro-3,5-dimethoxyphenyl)-1-(2-hydroxyethyl)-1,3,4,7-tetrahydro-2H-pyrazolo[4′,3′:5,6]pyrido[4,3-d]pyrimidin-2-one]
< 100 nM: all assays above

COc1cc(OC)c(F)c(N2Cc3cnc4[nH]c(CCN5CCN(C)CC5)cc4c3C(C)(C)C2=O)c1F [Example 160, 7-(2,6-difluoro-3,5-dimethoxyphenyl)-9,9-dimethyl-2-[2-(4-methylpiperazin-1-yl)ethyl]-3,6,7,9-tetrahydro-8H-pyrrolo[2,3-c]-2,7-naphthyridin-8-one]
< 100 nM: all assays above

COc1cc(OC)c(Cl)c(N2Cc3cnc4[nH]ncc4c3N(C3CCC3)C2=O)c1F [Example 102, 3-(2-chloro-6-fluoro-3,5-dimethoxyphenyl)-1-cyclobutyl-1,3,4,7-tetrahydro-2H-pyrazolo[4′,3′:5,6]pyrido[4,3-d]pyrimidin-2-one]
< 100 nM: all assays above

COc1cc(OC)c(F)c(N2Cc3cnc4[nH]ccc4c3N(C3CC3)C2=O)c1F [Example 45, 1-Cyclopropyl-3-(2,6-difluoro-3,5-dimethoxyphenyl)-1,3,4,7-tetrahydro-2H-pyrrolo[3′,2′:5,6]pyrido[4,3-d]pyrimidin-2-one]
< 100 nM: all assays above

COc1cc(OC)c(F)c(N2Cc3cnc4[nH]c(CN5CC(C#N)C5)cc4c3N(C)C2=O)c1F [Example 208, 1-{[3-(2,6-difluoro-3,5-dimethoxyphenyl)-1-methyl-2-oxo-2,3,4,7-tetrahydro-1H-pyrrolo[3′,2′:5,6]pyrido[4,3-d]pyrimidin-8-yl]methyl}azetidine-3-carbonitrile]
< 100 nM: all assays above

COc1cc(OC)c(F)c(N2Cc3cnc4[nH]c(CN5CCOCC5)cc4c3N(CCO)C2=O)c1F [Example 221, 3-(2,6-difluoro-3,5-dimethoxyphenyl)-1-(2-hydroxyethyl)-8-(morpholin-4-ylmethyl)-1,3,4,7-tetrahydro-2H-pyrrolo[3′,2′:5,6]pyrido[4,3-d]pyrimidin-2-one]
< 100 nM: all assays above

COc1cc(OC)c(F)c(N2Cc3cnc4[nH]cc(-c5cnn(C)c5)c4c3N(C)C2=O)c1F [Example 43, 3-(2,6-Difluoro-3,5-dimethoxyphenyl)-1-methyl-9-(1-methyl-1H-pyrazol-4-yl)-1,3,4,7-tetrahydro-2H-pyrrolo[3′,2′:5,6]pyrido[4,3-d]pyrimidin-2-one]
< 100 nM: all assays above

COc1cc(OC)c(F)c(N2Cc3cnc4[nH]c(CN5CCOCC5)cc4c3N(c3ccncc3)C2=O)c1F [Example 194, 3-(2,6-difluoro-3,5-dimethoxyphenyl)-8-(morpholin-4-ylmethyl)-1-pyridin-4-yl-1,3,4,7-tetrahydro-2H-pyrrolo[3′,2′:5,6]pyrido[4,3-d]pyrimidin-2-one]
< 100 nM: all assays above

COc1cc(OC)c(F)c(N2Cc3cnc4[nH]c(CCN5CCOCC5)cc4c3N(C)C2=O)c1F [Example 114, 3-(2,6-difluoro-3,5-dimethoxyphenyl)-1-methyl-8-(2-morpholin-4-ylethyl)-1,3,4,7-tetrahydro-2H-pyrrolo[3′,2′:5,6]pyrido[4,3-d]pyrimidin-2-one]
< 100 nM: all assays above

COc1cc(OC)c(F)c(N2Cc3cnc4c(c3N(c3ccc(Cl)cn3)C2=O)CC(=O)N4)c1F [Example 81, 1-(5-chloropyridin-2-yl)-3-(2,6-difluoro-3,5-dimethoxyphenyl)-3,4,7,9-tetrahydro-1H-pyrrolo[3′,2′:5,6]pyrido[4,3-d]pyrimidine-2,8-dione]
< 100 nM: all assays above

COc1cc(OC)c(F)c(N2Cc3cnc4[nH]c(CCN5CCN(C)CC5)cc4c3N(c3ccccc3F)C2=O)c1F [Example 197, 3-(2,6-difluoro-3,5-dimethoxyphenyl)-1-(2-fluorophenyl)-8-[2-(4-methylpiperazin-1-yl)ethyl]-1,3,4,7-tetrahydro-2H-pyrrolo[3′,2′:5,6]pyrido[4,3-d]pyrimidin-2-one]
< 100 nM: all assays above

From patent US9611267B2, “Substituted tricyclic compounds as FGFR inhibitors” (Incyte Corporation, priority 2012, dated 2017)
